Test results from ChEMBL document CHEMBL4152276, “Design, synthesis and biological evaluation of N-phenyl-(2,4-dihydroxypyrimidine-5-sulfonamido)benzoyl hydrazide derivatives as thymidylate synthase (TS) inhibitors and as potential antitumor drugs” (Eur J Med Chem, 2018).

Key:
[1] = test system: A549; experiment: Antiproliferative activity against human A549 cells after 24 hrs by MTT assay; type: functional, cell-based; conditions: A549, 24 h
[2] = test system: OVCAR-3; experiment: Antiproliferative activity against human OVCAR3 cells after 24 hrs by MTT assay; type: functional, cell-based; conditions: OVCAR-3, 24 h
[3] = test system: MDA-MB-231; experiment: Antiproliferative activity against human MDA-MB-231 cells after 24 hrs by MTT assay; type: functional, cell-based; conditions: MDA-MB-231, 24 h
[4] = test system: SGC-7901; experiment: Antiproliferative activity against human SGC7901 cells after 24 hrs by MTT assay; type: functional, cell-based; conditions: SGC-7901, 24 h
[5] = test system: A549; experiment: Antiproliferative activity against human A549 cells at 8 uM after 24 hrs by MTT assay relative to control; type: functional
[6] = test system: A549; experiment: Antiproliferative activity against human A549 cells at 3.2 uM after 24 hrs by MTT assay relative to control; type: functional
[7] = test system: A549; experiment: Antiproliferative activity against human A549 cells at 0.512 uM after 24 hrs by MTT assay relative to control; type: functional
[8] = Selectivity index, ratio of CC50 for HPAEpiC to IC50 for human A549 cells; type: toxicity; conditions: HPAEpiC cells (CC50) versus A549 cells (IC50)
[9] = Selectivity index, ratio of CC50 for human GES1 cells to IC50 for human A549 cells; type: toxicity; conditions: GES1 cells (CC50) versus A549 cells (IC50)
[10] = Selectivity index, ratio of CC50 for human HTB125 cells to IC50 for human A549 cells; type: toxicity; conditions: HTB125 cells (CC50) versus A549 cells (IC50)
[11] = test system: A549; experiment: Antiproliferative activity against human A549 cells at 1.28 uM after 24 hrs by MTT assay relative to control; type: functional
[12] = test system: A549; experiment: Antiproliferative activity against human A549 cells at 20 uM after 24 hrs by MTT assay relative to control; type: functional
[13] = Selectivity index, ratio of CC50 for human IOSE80 cells to IC50 for human A549 cells; type: toxicity; conditions: IOSE80 cells (CC50) versus A549 cells (IC50)

Row | SMILES | IC50 [1] [µM] | IC50 [2] [µM] | IC50 [3] [µM] | IC50 [4] [µM] | also measured
1 | O=C(NNC(=O)c1ccc(NS(=O)(=O)c2cnc(O)nc2O)cc1)c1ccc(F)cc1 | > 20 | > 20 | > 20 | > 20 | 
2 | O=C(NNc1ccc(F)cc1)c1cccc(NS(=O)(=O)c2cnc(O)nc2O)c1 | > 20 | > 20 | > 20 | > 20 | 
3 | Cc1ccc(C(=O)NNC(=O)c2ccc(NS(=O)(=O)c3cnc(O)nc3O)cc2)cc1 | 15.9 | > 20 | > 20 | > 20 | 
4 | Cc1ccccc1NNC(=O)c1cccc(NS(=O)(=O)c2cnc(O)nc2O)c1 | 14.2 | > 20 | > 20 | > 20 | 
5 | Cc1cccc(NNC(=O)c2ccc(NS(=O)(=O)c3cnc(O)nc3O)cc2)c1 | > 20 | > 20 | > 20 | > 20 | 
6 | Cc1cccc(NNC(=O)c2cccc(NS(=O)(=O)c3cnc(O)nc3O)c2)c1 | > 20 | > 20 | > 20 | > 20 | 
7 | Cc1cccc(NNC(=O)c2ccccc2NS(=O)(=O)c2cnc(O)nc2O)c1 | > 20 | > 20 | > 20 | > 20 | 
8 | O=C(NNC(=O)c1ccccc1F)c1cccc(NS(=O)(=O)c2cnc(O)nc2O)c1 | 10.8 | 10.8 | > 20 | > 20 | 
9 | O=C(NNc1ccc(F)cc1)c1ccc(NS(=O)(=O)c2cnc(O)nc2O)cc1 | > 20 | > 20 | > 20 | > 20 | 
10 | O=C(NNc1ccccc1F)c1cccc(NS(=O)(=O)c2cnc(O)nc2O)c1 | 11.1 | 17 | > 20 | > 20 | 
11 | O=C(NNc1ccc(F)cc1)c1ccccc1NS(=O)(=O)c1cnc(O)nc1O | > 20 | > 20 | > 20 | > 20 | 
12 | Cc1ccc(C(=O)NNC(=O)c2ccccc2NS(=O)(=O)c2cnc(O)nc2O)cc1 | > 20 | 12.9 | > 20 | 15.5 | 
13 | Cc1ccccc1NNC(=O)c1ccccc1NS(=O)(=O)c1cnc(O)nc1O | > 20 | > 20 | > 20 | > 20 | 
14 | Cc1ccc(C(=O)NNC(=O)c2cccc(NS(=O)(=O)c3cnc(O)nc3O)c2)cc1 | > 20 | > 20 | > 20 | 10.1 | 
15 | O=C(NNC(=O)c1ccccc1NS(=O)(=O)c1cnc(O)nc1O)c1ccc(F)cc1 | > 20 | 15.1 | > 20 | > 20 | 
16 | Cc1ccccc1NNC(=O)c1ccc(NS(=O)(=O)c2cnc(O)nc2O)cc1 | 14.5 | > 20 | > 20 | > 20 | 
17 | Cc1ccccc1C(=O)NNC(=O)c1ccc(NS(=O)(=O)c2cnc(O)nc2O)cc1 | 15.1 | > 20 | 7.04 | > 20 | 
18 | O=C(NNc1ccccc1F)c1ccc(NS(=O)(=O)c2cnc(O)nc2O)cc1 | 11.7 | > 20 | > 20 | 16 | 
19 | O=C(NNC(=O)c1cccc(NS(=O)(=O)c2cnc(O)nc2O)c1)c1ccc(F)cc1 | > 20 | > 20 | > 20 | > 20 | 

Now those with a lower IC50 [1], led by results:

Row | IC50 [1] [µM] | IC50 [2] [µM] | IC50 [3] [µM] | IC50 [4] [µM] | SMILES | also measured
20 | 4.96 | 5.01 | 6.83 | 6.89 | CCCCOc1ccc(C(=O)NNC(=O)c2ccccc2NS(=O)(=O)c2cnc(O)nc2O)cc1 | 
21 | 5.29 | 18.2 | 8.31 | 2.41 | O=C(NNC(=O)c1ccccc1NS(=O)(=O)c1cnc(O)nc1O)c1ccccc1Cl | 
22 | 7.61 | 16 | > 20 | > 20 | O=C(NNC(=O)c1ccccc1F)c1ccc(NS(=O)(=O)c2cnc(O)nc2O)cc1 | 
23 | 5.48 | 14.1 | 18.9 | > 20 | O=C(NNc1ccccc1Cl)c1ccccc1NS(=O)(=O)c1cnc(O)nc1O | 
24 | 7.29 | 8.41 | 17.4 | 11.6 | O=C(NNc1cccc(Cl)c1)c1ccc(NS(=O)(=O)c2cnc(O)nc2O)cc1 | 
25 | 1.46 | 3.35 | 2.09 | 2.27 | O=C(NNc1ccccc1Cl)c1cccc(NS(=O)(=O)c2cnc(O)nc2O)c1 | 
26 | 7.76 | 9.2 | 17 | 7.37 | CCCCOc1ccc(C(=O)NNC(=O)c2cccc(NS(=O)(=O)c3cnc(O)nc3O)c2)cc1 | 
27 | 7.15 | 15.3 | > 20 | > 20 | O=C(NNC(=O)c1ccccc1NS(=O)(=O)c1cnc(O)nc1O)c1ccccc1F | 
28 | 3.34 | 7.23 | 4.01 | 3.63 | O=C(NNc1ccccc1Cl)c1ccc(NS(=O)(=O)c2cnc(O)nc2O)cc1 | 
29 | 1.9 | 5.22 | 13.9 | 3.24 | O=C(NNC(=O)c1ccccc1Cl)c1ccc(NS(=O)(=O)c2cnc(O)nc2O)cc1 | 
30 | 2.29 | 7.71 | 4.16 | 8.61 | O=C(NNC(=O)c1cccc(Cl)c1)c1ccc(NS(=O)(=O)c2cnc(O)nc2O)cc1 | 
31 | 6 | 13.5 | 3.18 | 7.31 | O=C(NNC(=O)c1cccc(NS(=O)(=O)c2cnc(O)nc2O)c1)c1cccc(Cl)c1 | 
32 | 3.74 | 7.3 | 2.36 | 6.07 | O=C(NNC(=O)c1ccccc1Cl)c1cccc(NS(=O)(=O)c2cnc(O)nc2O)c1 | 
33 | 8.01 | > 20 | 18.1 | > 20 | Cc1ccccc1C(=O)NNC(=O)c1cccc(NS(=O)(=O)c2cnc(O)nc2O)c1 | 
34 | 5.45 | > 20 | 5.57 | 13 | Cc1ccccc1C(=O)NNC(=O)c1ccccc1NS(=O)(=O)c1cnc(O)nc1O | 
35 | 3.31 | 6.9 | 3.85 | 9.08 | Nc1nc2[nH]cc(CCc3ccc(C(=O)N[C@@H](CCC(=O)O)C(=O)O)cc3)c2c(=O)[nH]1 [PEMETREXED] | Activity [5]: 61.82%; Activity [6]: 56.2%; Activity [7]: 22.93%; selectivity ratio [8]: 7.51; selectivity ratio [9]: 3.22; selectivity ratio [10]: 6.02; Activity [11]: 49.43%; Activity [12]: 64.42%; selectivity ratio [13]: 3.59
36 | 5.29 | 5.52 | 11.8 | 10.8 | O=C(NNc1cccc(Cl)c1)c1ccccc1NS(=O)(=O)c1cnc(O)nc1O | 
37 | 6.64 | 8.04 | 7.76 | 11.8 | O=C(NNc1cccc(Cl)c1)c1cccc(NS(=O)(=O)c2cnc(O)nc2O)c1 | 
38 | 9.01 | 12.8 | 11.9 | 14.7 | CCCCOc1ccc(C(=O)NNC(=O)c2ccc(NS(=O)(=O)c3cnc(O)nc3O)cc2)cc1 | 
39 | 9.61 | 9.57 | > 20 | > 20 | O=C(NNc1ccccc1F)c1ccccc1NS(=O)(=O)c1cnc(O)nc1O | 
